# Test results: patent publication US20230391752A1, “PYRROLIDINE-3-CARBOXAMIDE DERIVATIVES AND RELATED USES” (Chulalongkorn University, priority 2020, published 2023)
# Test system: HBV
# Assay: In vitro anti-HBV activity in HepG2.2.15 cell line (intracellular HBV DNA by qPCR at 1 μM)
# Type: cell-based
# Conditions: Hepatitis B virus, 144 h; HepG2.2.15 cells, 1 μM compound, 6 days, intracellular HBV DNA as percentage compared to vehicle control (0.5% DMSO)
# Protocol: The stable transfected HBV cell line, called HepG2.2.15 cells was a valuable model with high reproducibility and commonly used for drug screening. To identify the anti-HBV activity, HepG2.2.15 cells were seeded at 5×10^5 cells/well with high glucose Dulbecco's modified Eagle medium (DMEM) containing 10% heat inactivated fetal bovine serum (FBS), 300 mg/L G418, non-essential amino acids (NEAA) 100 units/ml Antibiotic-Antimycotic, and allowed to stand for an overnight in an incubator set at 37° C. and 5% C02. HepG2.2.15 cells in each well were treated with the medium containing a compound (1 μM with 0.5% dimethyl sulfoxide (DMSO final concentration) for three days in the incubator. After that the medium was removed and fresh medium containing the compound was added to the cells for another 3 days. After 6 days of treatment, intracellular HBV DNA was extracted and determined by using quantitative real-time PCR (qPCR) technique with specific primers. Intrahepatic HBV DNA viral load was reported as percentage compared to vehicle control (0.5% DMSO) as shown in Table A.
# “B” means % ranging between 80 and 90; “C” means % ranging between 70 and 80; “D” means % ranging between 60 and 70; “E” means % ranging between 45 and 60, “F” means %<45.
row,Structure (SMILES),activity at 1 µM [%]
1,"O=C(Nc1cc(F)c(F)c(F)c1)[C@H]1CCN(C(=O)c2nc3cccnc3[nH]2)C1 [Example 67, (S)-1-(3H-imidazo[4,5-b]pyridine-2-carbonyl)-N-(3,4,5-trifluorophenyl)pyrrolidine-3-carboxamide]",45 to 60
2,"Cc1ccc(C(=O)N2CC[C@H](C(=O)Nc3cc(F)c(F)c(Br)c3)[C@@H]2C)[nH]1 [Example 58, (2S,3S)—N-(3-bromo-4,5-difluorophenyl)-2-methyl-1-(5-methyl-1H-pyrrole-2-carbonyl)pyrroline-3-carboxamide]",70 to 80
3,"O=C(Nc1cc(F)c(F)c(F)c1)[C@H]1CCN(C(=O)c2ccc(CO)[nH]2)C1 [Example 56, (S)-1-(5-(hydroxymethyl)-1H-pyrrole-2-carbonyl)-N-(3,4,5-trifluorophenyl)pyrrolidine-3-carboxamide]",> 90
4,"N#Cc1cc(NC(=O)[C@H]2CCN(C(=O)c3ccc(-c4ccncc4)[nH]3)C2)ccc1F [Example 78, (S)—N-(3-cyano-4-fluorophenyl)-1-(5-(pyridin-4-yl)-1H-pyrrole-2-carbonyl)pyrrolidine-3-carboxamide]",70 to 80
5,"O=C(Nc1cc(F)c(F)c(F)c1)[C@H]1CCN(C(=O)c2ccc(-c3cccnn3)[nH]2)C1 [Example 96, (S)-1-(5-(pyridazin-3-yl)-1H-pyrrole-2-carbonyl)-N-(3,4,5-trifluorophenyl)pyrrolidine-3-carboxamide]",45 to 60
6,"Cc1ncnc(C)c1-c1ccc(C(=O)N2CC[C@H](C(=O)Nc3ccc(F)c(C#N)c3)C2)[nH]1 [Example 94, (S)—N-(3-cyano-4-fluorophenyl)-1-(5-(4,6-dimethylpyrimidin-5-yl)-1H-pyrrole-2-carbonyl)pyrrolidine-3-carboxamide]",60 to 70
7,"Cc1cc(NC(=O)[C@H]2CCN(C(=O)c3nc4ccccc4[nH]3)C2)ccc1F [Example 68, (S)-1-(1H-benzo[d]imidazole-2-carbonyl)-N-(4-fluoro-3-methylphenyl)pyrrolidine-3-carboxamide]",< 45
8,"N#Cc1cc(NC(=O)[C@H]2CCN(C(=O)c3ccc(-c4ccc(F)cc4)[nH]3)C2)ccc1F [Example 76, (S)—N-(3-cyano-4-fluorophenyl)-1-(5-(4-fluorophenyl)-1H-pyrrole-2-carbonyl)pyrrolidine-3-carboxamide]",45 to 60
9,"CC(=O)c1c[nH]c(C(=O)N2CC[C@H](C(=O)Nc3cc(F)c(F)c(F)c3)C2)c1 [Example 38, (S)-1-(4-acetyl-1H-pyrrole-2-carbonyl)-N-(3,4,5-trifluorophenyl)pyrrolidine-3-carboxamide]",> 90
10,"O=C(Nc1cc(F)c(F)c(F)c1)[C@H]1CCN(C(=O)c2cc3occc3[nH]2)C1 [Example 9, (S)-1-(4H-furo[3,2-b]pyrrole-5-carbonyl)-N-(3,4,5-trifluorophenyl)pyrrolidine-3-carboxamide]",80 to 90
11,"Cn1ccnc1-c1ccc(C(=O)N2CC[C@H](C(=O)Nc3cc(F)c(F)c(F)c3)C2)[nH]1 [Example 91, (S)-1-(5-(1-methyl-1H-imidazol-2-yl)-1H-pyrrole-2-carbonyl)-N-(3,4,5-trifluorophenyl)pyrrolidine-3-carboxamide]",< 45
12,"N#Cc1cc(NC(=O)[C@H]2CCN(C(=O)c3ccc(Cl)[nH]3)C2)ccc1F [Example 22, (S)-1-(5-chloro-1H-pyrrole-2-carbonyl)-N-(3-cyano-4-fluorophenyl)pyrrolidine-3-carboxamide]",60 to 70
13,"Cc1ccc(C(=O)N2CC[C@H](C(=O)Nc3cc(F)c(F)c(Br)c3)C2)[nH]1 [Example 51, (S)—N-(3-bromo-4,5-difluorophenyl)-1-(5-methyl-1H-pyrrole-2-carbonyl)pyrrolidine-3-carboxamide]",45 to 60
14,"N#Cc1ccc(C(=O)N2CC[C@H](C(=O)Nc3cc(F)c(F)c(F)c3)C2)[nH]1 [Example 50, (S)-1-(5-cyano-1H-pyrrole-2-carbonyl)-N-(3,4,5-trifluorophenyl)pyrrolidine-3-carboxamide]",70 to 80
15,"Cc1nccnc1-c1ccc(C(=O)N2CC[C@H](C(=O)Nc3cc(F)c(F)c(F)c3)[C@@H]2C)[nH]1 [Example 93, (2S,3S)-2-methyl-1-(5-(3-methylpyrazin-2-yl)-1H-pyrrole-2-carbonyl)-N-(3,4,5-trifluorophenyl) pyrrolidine-3-carboxamide]",< 45
16,"C[C@H]1[C@@H](C(=O)Nc2cc(F)c(F)c(F)c2)CCN1C(=O)c1cc2cccnc2[nH]1 [Example 17, (2S,3S)-2-methyl-1-(1H-pyrrolo[2,3-b]pyridine-2-carbonyl)-N-(3,4,5-trifluorophenyl) pyrrolidine-3-carboxamide]",60 to 70

row,Structure (SMILES),activity at 1 µM [%]
1,"Cc1cc(NC(=O)[C@@H]2CN(C(=O)c3[nH]c4ccccc4c3Cl)C[C@H]2C)ccc1F [Example 167, (3S,4S)-1-(3-chloro-1H-indole-2-carbonyl)-N-(4-fluoro-3-methylphenyl)-4-methylpyrrolidine-3-carboxamide]",45 to 60
2,"O=C(Nc1cc(F)c(F)c(F)c1)[C@H]1CCN(C(=O)c2cc3ncccc3[nH]2)C1 [Example 14, (S)-1-(1H-pyrrolo[3,2-b]pyridine-2-carbonyl)-N-(3,4,5-trifluorophenyl)pyrrolidine-3-carboxamide]",70 to 80
3,"O=C(Nc1cc(F)c(F)c(F)c1)[C@H]1CCN(C(=O)c2c[nH]c3ccccc23)C1 [Example 26, (S)-1-(1H-indole-3-carbonyl)-N-(3,4,5-trifluorophenyl)pyrrolidine-3-carboxamide]",80 to 90
4,"O=C(Nc1cc(F)c(F)c(F)c1)[C@H]1CCN(C(=O)c2cc3sccc3[nH]2)C1 [Example 7, (S)-1-(4H-thieno[3,2-b]pyrrole-5-carbonyl)-N-(3,4,5-trifluoro-phenyl)pyrrolidine-3-carboxamide]",60 to 70
5,"CC(C)c1ccc(C(=O)N2CC[C@H](C(=O)Nc3cc(F)c(F)c(F)c3)C2)[nH]1 [Example 61, (S)-1-(5-isopropyl-1H-pyrrole-2-carbonyl)-N-(3,4,5-trifluorophenyl)pyrrolidine-3-carboxamide]",60 to 70
6,"Cc1cc(NC(=O)[C@H]2CCN(C(=O)c3ccc(-c4c(C)nn(CC(=O)O)c4C)[nH]3)[C@H]2C)ccc1F [Example 147, 2-(4-(5-((2S,3S)-3-((4-fluoro-3-methylphenyl)carbamoyl)-2-methylpyrrolidine-1-carbonyl)-1H-pyrrol-2-yl)-3,5-dimethyl-1H-pyrazol-1-yl)acetic acid]",45 to 60
7,"O=C(Nc1ccc(F)c(Cl)c1)[C@H]1CCN(C(=O)c2nc3cccnc3[nH]2)C1 [Example 69, (S)—N-(3-chloro-4-fluorophenyl)-1-(3H-imidazo[4,5-b]pyridine-2-carbonyl)pyrrolidine-3-carboxamide]",70 to 80
8,"Cc1cc(C(=O)N2CC[C@H](C(=O)Nc3cc(F)c(F)c(F)c3)C2)[nH]c1C [Example 15, (S)-1-(4,5-dimethyl-1H-pyrrole-2-carbonyl)-N-(3,4,5-trifluorophenyl)pyrrolidine-3-carboxamide]",60 to 70
9,"Cn1cc(-c2ccc(C(=O)N3CC[C@H](C(=O)Nc4cc(F)c(F)c(F)c4)C3)[nH]2)c2ccncc21 [Example 158, (S)-1-(5-(1-methyl-1H-pyrrolo[2,3-c]pyridin-3-yl)-1H-pyrrole-2-carbonyl)-N-(3,4,5-trifluorophenyl)pyrrolidine-3-carboxamide]",60 to 70
10,"N#Cc1cc(NC(=O)[C@H]2CCN(C(=O)c3cc4cccnc4[nH]3)C2)ccc1F [Example 18, (S)—N-(3-cyano-4-fluorophenyl)-1-(1H-pyrrolo[2,3-b]pyridine-2-carbonyl)pyrrolidine-3-carboxamide]",70 to 80
11,"Cc1nn(C)c(C)c1-c1ccc(C(=O)N2CC[C@H](C(=O)Nc3cc(F)c(F)c(F)c3)C2)[nH]1 [Example 88, (S)—N-(3,4,5-trifluorophenyl)-1-(5-(1,3,5-trimethyl-1H-pyrazol-4-yl)-1H-pyrrole-2-carbonyl) pyrrolidine-3-carboxamide]",< 45
12,"CC(O)c1c[nH]c(C(=O)N2CC[C@H](C(=O)Nc3cc(F)c(F)c(F)c3)C2)c1 (stereo partly drawn) [Example 39, (3S)-1-(4-(1-hydroxyethyl)-1H-pyrrole-2-carbonyl)-N-(3,4,5-trifluorophenyl)pyrrolidine-3-carboxamide]",70 to 80
13,"O=C(Nc1cc(F)c(F)c(F)c1)[C@H]1CCN(C(=O)c2cccc3cc[nH]c23)C1 [Example 6, (S)-1-(1H-indole-7-carbonyl)-N-(3,4,5-trifluorophenyl)pyrrolidine-3-carboxamide]",> 90
14,"Cc1ncccc1C(=O)c1ccc(C(=O)N2CC[C@H](C(=O)Nc3cc(F)c(F)c(F)c3)C2)[nH]1 [Example 144, (S)-1-(5-(2-methylnicotinoyl)-1H-pyrrole-2-carbonyl)-N-(3,4,5-trifluorophenyl)pyrrolidine-3-carboxamide]",> 90
15,"Cc1ncnc(C)c1-c1ccc(C(=O)N2CC[C@H](C(=O)Nc3ccc(F)c(C4CC4)c3)[C@@H]2C)[nH]1 [Example 170, (2S,3S)—N-(3-cyclopropyl-4-fluorophenyl)-1-(5-(4,6-dimethylpyrimidin-5-yl)-1H-pyrrole-2-carbonyl)-2-methylpyrrolidine-3-carboxamide]",< 45
